In a melting point compilation (Tetko et al.):

CN(C)C(=O)Cn1cc(C(=O)O)nn1
melting point: 199 to 201 °C

Cc1nc2ccc(Cl)cc2cc1C(=O)O
melting point: 218 to 220 °C

O=C(O)c1ccc2c(=O)n3c(nc2c1)CCCCC3
melting point: 276 to 278 °C

O=C(O)c1ccccc1SCC(=O)N1CCCC1
melting point: 115 to 117 °C

CN(CC(=O)O)c1ccc(C(F)(F)F)cc1C=O
melting point: 106 to 108 °C

CC(C)NC(=O)CCCl
melting point: 67 to 69 °C

CC(O)c1ccc(N2CCNC(=O)C2)cc1Cl (stereo not given)
melting point: 186 to 188 °C

COC(=O)c1sc(N)c(C(=O)OC)c1CBr
melting point: 163 to 165 °C

Cc1ccc(CNC(=O)c2c[nH]nc2N)cc1
melting point: 168 to 170 °C

Fc1ccc(C2CNCCO2)cc1 (stereo not given)
melting point: 56 to 58 °C

Sc1nnc(-c2ccccc2)c2ccccc12
melting point: 178 to 180 °C

N#Cc1ccc(CNc2ccc3[nH]c(=O)[nH]c3c2)cc1
melting point: 276 to 278 °C

O=C(O)c1cc2cc(F)ccc2oc1=O
melting point: 185 to 187 °C

CN1CCN(c2ccc(CN)cn2)CC1
melting point: 60 to 62 °C

N#CCCNC(=O)CCl
melting point: 96 to 98 °C

NS(=O)(=O)c1ccc(OCCSCC(=O)O)cc1
melting point: 196 to 198 °C

Nc1ncn(Cc2ccc(Cl)cc2)n1
melting point: 156 to 158 °C

O=C(O)CC1(CO)CC1
melting point: 68 to 70 °C

C=CCOc1ccc(C(F)(F)F)cc1C(=O)O
melting point: 58 to 60 °C

COc1cc(N)ccc1S(=O)(=O)Nc1ccc(Cl)cc1Cl
melting point: 199 to 201 °C

CCOC(=O)c1oc2c(Cl)cccc2c1C
melting point: 63 to 65 °C

Nc1sc2c(c1C(=O)N1CCOCC1)CCCC2
melting point: 90 to 92 °C

O=C(c1ccccc1)c1ccccc1Br
melting point: 72 to 74 °C

CS(=O)(=O)c1cc(S(=O)(=O)Cl)ccc1F
melting point: 112 to 114 °C

O=Cc1ccnc2[nH]ccc12
melting point: 169 to 171 °C

Clc1nc(-c2ccccc2)ns1
melting point: 51 to 53 °C

N#Cc1ccc2cc(Br)c(Br)cc2c1
melting point: 138 to 140 °C

NNC(=O)c1cccc2cccnc12
melting point: 88 to 90 °C

O=C1COc2cc(OCc3ccccc3)ccc21
melting point: 99 to 101 °C

Cn1cc(NS(=O)(=O)c2ccsc2C(=O)O)cn1
melting point: 239 to 241 °C

CC(=O)Nc1c(C)n[nH]c1C
melting point: 202 to 204 °C

O=C(O)C(Cc1ccccc1)N1CCCOC1=O (stereo not given)
melting point: 163 to 165 °C

NC(=O)N1CCN(c2ccccc2F)CC1
melting point: 150 to 152 °C

NCCCS(=O)(=O)Cc1ccccc1
melting point: 63 to 65 °C

Nc1cc(-c2cccc(Br)c2)ncn1
melting point: 229 to 231 °C

Nc1ccc2oc(-c3ccccc3F)nc2c1
melting point: 166 to 168 °C

Cc1ccc(-c2noc3nc(C)cc(C(=O)O)c23)cc1
melting point: 261 to 263 °C

CNC(=S)NCCN1CCOCC1
melting point: 103 to 105 °C

CC(C)c1c(C(=O)O)cnn1-c1ccccn1
melting point: 129 to 131 °C

CC(=O)c1ccc(N2CCCS2(=O)=O)cc1
melting point: 137 to 139 °C

CCc1ccc(N)cc1[N+](=O)[O-]
melting point: 44 to 46 °C

O=C(O)CN1C(=O)c2ccc([N+](=O)[O-])cc2C1=O
melting point: 197 to 199 °C

CCOc1ccc(C(=O)O)cc1C
melting point: 198 to 200 °C

NCC(O)c1cccc(F)c1 (stereo not given)
melting point: 42 to 44 °C

CCOC(=O)CS(=O)(=O)c1ccc(Br)cc1
melting point: 45 to 47 °C

Cc1cc(C)c(C#N)c(N2CCCC2)n1
melting point: 54 to 56 °C

Cn1ccnc1CN1CCC(C(=O)O)CC1
melting point: 173 to 175 °C

CCOc1ccc(Br)cc1S(=O)(=O)Cl
melting point: 109 to 111 °C

CC(C)(C)OC(=O)Nc1cccc(Cl)n1
melting point: 74 to 76 °C

NNC(=O)c1cnn(-c2ccccc2)c1
melting point: 179 to 181 °C

NCc1cnc(-c2ccc(C(F)(F)F)cc2)s1
melting point: 73 to 75 °C

NCc1ccc(-c2nc3ccccc3s2)o1
melting point: 124 to 126 °C

COc1ccc(C2CC2C(=O)O)cc1 (stereo not given)
melting point: 109 to 111 °C

O=C(CCl)NN1C(=O)NC2(CCCCC2)C1=O
melting point: 105 to 107 °C

CC(C)COC(C)C(N)=NO (stereo not given)
melting point: 63 to 65 °C

Nc1cccc(OCCc2ccccc2)c1
melting point: 139 to 141 °C

Cc1noc(C)c1S(=O)(=O)NC(C)C(=O)O (stereo not given)
melting point: 135 to 137 °C

CC(C)(C)n1cnc(N)n1
melting point: 135 to 137 °C

CC1(c2cccc3ccccc23)NC(=O)NC1=O (stereo not given)
melting point: 105 to 107 °C

O=C(O)c1ccn(-c2ccccc2)n1
melting point: 138 to 140 °C

Nc1cc(NC(=O)c2ccccc2I)ccc1Cl
melting point: 189 to 191 °C

NCCS(=O)(=O)c1ccc(Br)cc1
melting point: 87 to 89 °C

Fc1ccc(-c2nc(CCl)co2)cc1F
melting point: 59 to 61 °C

Cc1cc2ccccc2c(=O)[nH]1
melting point: 199 to 201 °C

NNC(=O)CNc1ccccc1
melting point: 126 to 128 °C

Fc1ccc(-c2ccc(Cl)nn2)cc1
melting point: 159 to 161 °C

Nc1ncc2c(n1)CCN(Cc1ccccc1)C2
melting point: 179 to 181 °C

NNC(=O)CSc1ccccc1F
melting point: 131 to 133 °C

Cc1cccc(-c2nonc2N)c1
melting point: 77 to 79 °C

CC(C)(C)C1=NN(c2ccccc2)C(=O)C1=CCl
melting point: 89 to 91 °C

COC(=O)CNS(=O)(=O)c1ccc(N)cc1
melting point: 78 to 80 °C

CCc1c(C(C)(C)C)noc1N
melting point: 75 to 77 °C

CS(=O)(=O)c1ccc(Oc2ccc(N)cc2)cc1
melting point: 152 to 154 °C

COC(=O)NC(=O)CCl
melting point: 147 to 151 °C

Cc1cccc(COc2ccc(S(N)(=O)=O)cc2)c1
melting point: 159 to 161 °C

Cc1ccccc1-n1cc(C(=O)O)cn1
melting point: 106 to 108 °C

CN(C(=O)c1ccc(Cl)c(N)c1)c1ccccc1
melting point: 120 to 122 °C

N#Cc1ccnc(-n2ccnc2)c1
melting point: 148 to 150 °C

O=C(O)CCNC(=O)NC1CCCCC1
melting point: 163 to 165 °C

COc1ccccc1C1(C(=O)O)CC1
melting point: 131 to 133 °C

Sc1ncnc2ccccc12
melting point: 293 to 295 °C

Cc1nccn1-c1ncccc1N
melting point: 166 to 168 °C

Nc1ccnn1Cc1cccnc1
melting point: 86 to 88 °C

CS(=O)(=O)N1CCCC(CCl)C1 (stereo not given)
melting point: 64 to 66 °C

Cn1ccc(S(=O)(=O)NCC2(N)CCCCC2)c1
melting point: 94 to 96 °C

CC1CCCC(NC(=O)CCl)C1C (stereo not given)
melting point: 125 to 127 °C

CNC(=O)NC(=O)C(C)Cl (stereo not given)
melting point: 118 to 120 °C

Nc1ccnn1Cc1ccc(Cl)c(F)c1
melting point: 68 to 70 °C

CNc1cc(-c2ccc(OC)cc2)[nH]n1
melting point: 122 to 124 °C

COc1ccc(C(=O)NC2CCS(=O)(=O)C2)cc1N (stereo not given)
melting point: 145 to 147 °C

Cc1nc(CO)oc1C
melting point: 59 to 61 °C

Cc1cc(N)[nH]c(=O)c1
melting point: 256 to 258 °C

Cc1ccc(NC(=O)c2ccccc2)cc1N
melting point: 144 to 146 °C

O=C(O)[C@@H](Cl)c1ccccc1
melting point: 56 to 58 °C

COC(=O)c1nnc2ccccc2c1Cl
melting point: 147 to 149 °C

CC(CC#N)Sc1ccccc1NC(=O)CCl (stereo not given)
melting point: 89 to 91 °C

CSc1nc(Cl)cc(NN)n1
melting point: 154 to 156 °C

N#Cc1ccccc1S(N)(=O)=O
melting point: 306 to 308 °C

Cc1ccc(S(=O)(=O)Cl)c(Br)c1
melting point: 70 to 72 °C

O=C(O)c1ccc(NC(=O)c2ccccn2)cc1
melting point: 263 to 265 °C

O=C(O)CCc1nc2ccccc2n1-c1ccccc1
melting point: 232 to 234 °C

N#Cc1cnc(Oc2ccccc2)cn1
melting point: 99 to 101 °C

Cc1cc2c(cc1Br)NCC(C)O2 (stereo not given)
melting point: 93 to 95 °C

NC(=NO)c1ccc2c(c1)CCO2
melting point: 215 to 217 °C

NC(=O)NC(CC(=O)O)c1ccccc1Cl (stereo not given)
melting point: 163 to 165 °C
